Reference: the supplement of paper PMC10733146

Key:
Test in all cases: viability relative to DMSO control (fraction); higher = less drug effect (more viable cells)
Conditions in all cases: 48 h
[1] = tested on: primary ALL patient cells (S088)
How it was run: (§1)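 Viability is given as CellTiter-Glo luminescence relative to the median of 16 inner DMSO wells. Fresh or cryopreserved primary mononuclear tumour cells from blood, bone marrow (both Ficoll-isolated) or processed lymph node were plated at 4 × 10^4 cells per well in 384-well plates against five pre-plated compound concentrations, one well each. Incubation lasted 48 h at 37 °C and 5% CO2 in RPMI-1640 with penicillin/streptomycin, L-glutamine and human serum.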

[2] = tested on: primary AML patient cells (S011)
How it was run: as §1

[3] = tested on: primary AML patient cells (S019)
How it was run: as §1

[4] = tested on: primary AML patient cells (S037)
How it was run: as §1

[5] = tested on: primary AML patient cells (S060)
How it was run: as §1

[6] = tested on: primary AML patient cells (S071)
How it was run: as §1

[7] = tested on: primary AML patient cells (S085)
How it was run: as §1

[8] = tested on: primary AML patient cells (S089)
How it was run: as §1

[9] = tested on: primary AML patient cells (S091)
How it was run: as §1

[10] = tested on: primary B-PLL patient cells (S016)
How it was run: as §1

[11] = tested on: primary CLL patient cells (S031)
How it was run: as §1

[12] = tested on: primary DLBCL patient cells (S082)
How it was run: as §1

[13] = tested on: primary FL patient cells (S087)
How it was run: as §1

[14] = tested on: primary MCL patient cells (S041)
How it was run: as §1

CNC(=O)c1cc(Oc2ccc(NC(=O)Nc3ccc(Cl)c(C(F)(F)F)c3)cc2)ccn1 [Sorafenib]
viability ([1]; 0.024 µM): 0.811 | viability ([1]; 0.12 µM): 0.896 | viability ([1]; 0.6 µM): 0.844 | viability ([1]; 3 µM): 0.996 | viability ([1]; 15 µM): 1.31 | viability ([2]; 0.024 µM): 0.966 | viability ([2]; 0.12 µM): 1.02 | viability ([2]; 0.6 µM): 0.972 | viability ([2]; 3 µM): 0.875 | viability ([2]; 15 µM): 0.715 | viability ([3]; 0.024 µM): 0.833 | viability ([3]; 0.12 µM): 1.18 | viability ([3]; 0.6 µM): 0.846 | viability ([3]; 3 µM): 1.11 | viability ([3]; 15 µM): 0.835 | viability ([4]; 0.024 µM): 0.961 | viability ([4]; 0.12 µM): 1.06 | viability ([4]; 0.6 µM): 1.05 | viability ([4]; 3 µM): 1.05 | viability ([4]; 15 µM): 1.09 | viability ([5]; 0.024 µM): 0.963 | viability ([5]; 0.12 µM): 0.951 | viability ([5]; 0.6 µM): 1.02 | viability ([5]; 3 µM): 1.02 | viability ([5]; 15 µM): 1.09 | viability ([6]; 0.024 µM): 0.944 | viability ([6]; 0.12 µM): 1.01 | viability ([6]; 0.6 µM): 1.02 | viability ([6]; 3 µM): 1 | viability ([6]; 15 µM): 0.614 | viability ([7]; 0.024 µM): 1.09 | viability ([7]; 0.12 µM): 1.06 | viability ([7]; 0.6 µM): 0.916 | viability ([7]; 3 µM): 1.12 | viability ([7]; 15 µM): 1.03 | viability ([8]; 0.024 µM): 0.847 | viability ([8]; 0.12 µM): 0.645 | viability ([8]; 0.6 µM): 0.822 | viability ([8]; 3 µM): 0.973 | viability ([8]; 15 µM): 0.587 | viability ([9]; 0.024 µM): 0.929 | viability ([9]; 0.12 µM): 1.13 | viability ([9]; 0.6 µM): 1.34 | viability ([9]; 3 µM): 1.98 | viability ([9]; 15 µM): 1.46 | viability ([10]; 0.024 µM): 0.964 | viability ([10]; 0.12 µM): 1.05 | viability ([10]; 0.6 µM): 1.01 | viability ([10]; 3 µM): 1 | viability ([10]; 15 µM): 0.978 | viability ([11]; 0.024 µM): 1.01 | viability ([11]; 0.12 µM): 1.02 | viability ([11]; 0.6 µM): 1.13 | viability ([11]; 3 µM): 1.02 | viability ([11]; 15 µM): 1.04 | viability ([12]; 0.024 µM): 1 | viability ([12]; 0.12 µM): 1.02 | viability ([12]; 0.6 µM): 1.03 | viability ([12]; 3 µM): 1.18 | viability ([12]; 15 µM): 1.35 | viability ([13]; 0.024 µM): 1.01 | viability ([13]; 0.12 µM): 1.04 | viability ([13]; 0.6 µM): 1.08 | viability ([13]; 3 µM): 1.06 | viability ([13]; 15 µM): 1.04 | viability ([14]; 0.024 µM): 0.981 | viability ([14]; 0.12 µM): 1.01 | viability ([14]; 0.6 µM): 1.04 | viability ([14]; 3 µM): 1.05 | viability ([14]; 15 µM): 0.95

CC(C)C[C@H](NC(=O)CNC(=O)c1cc(Cl)ccc1Cl)B(O)O [Ixazomib]
viability ([1]; 0.008 µM): 0.741 | viability ([1]; 0.04 µM): 0.839 | viability ([1]; 0.2 µM): 0.793 | viability ([1]; 1 µM): 0.851 | viability ([1]; 5 µM): 0.996 | viability ([2]; 0.008 µM): 0.957 | viability ([2]; 0.04 µM): 1.15 | viability ([2]; 0.2 µM): 0.891 | viability ([2]; 1 µM): 1.06 | viability ([2]; 5 µM): 1.03 | viability ([3]; 0.008 µM): 0.525 | viability ([3]; 0.04 µM): 0.757 | viability ([3]; 0.2 µM): 0.633 | viability ([3]; 1 µM): 0.786 | viability ([3]; 5 µM): 0.936 | viability ([4]; 0.008 µM): 0.982 | viability ([4]; 0.04 µM): 0.955 | viability ([4]; 0.2 µM): 0.939 | viability ([4]; 1 µM): 0.937 | viability ([4]; 5 µM): 0.955 | viability ([5]; 0.008 µM): 1.03 | viability ([5]; 0.04 µM): 0.988 | viability ([5]; 0.2 µM): 1.03 | viability ([5]; 1 µM): 1.02 | viability ([5]; 5 µM): 1.01 | viability ([6]; 0.008 µM): 1.01 | viability ([6]; 0.04 µM): 0.972 | viability ([6]; 0.2 µM): 0.995 | viability ([6]; 1 µM): 0.98 | viability ([6]; 5 µM): 0.974 | viability ([7]; 0.008 µM): 0.842 | viability ([7]; 0.04 µM): 0.977 | viability ([7]; 0.2 µM): 0.807 | viability ([7]; 1 µM): 0.911 | viability ([7]; 5 µM): 1.08 | viability ([8]; 0.008 µM): 1.07 | viability ([8]; 0.04 µM): 0.69 | viability ([8]; 0.2 µM): 0.968 | viability ([8]; 1 µM): 0.583 | viability ([8]; 5 µM): 0.627 | viability ([9]; 0.008 µM): 1.07 | viability ([9]; 0.04 µM): 0.874 | viability ([9]; 0.2 µM): 1.13 | viability ([9]; 1 µM): 0.811 | viability ([9]; 5 µM): 0.8 | viability ([10]; 0.008 µM): 0.929 | viability ([10]; 0.04 µM): 0.946 | viability ([10]; 0.2 µM): 0.987 | viability ([10]; 1 µM): 1 | viability ([10]; 5 µM): 0.913 | viability ([11]; 0.008 µM): 0.876 | viability ([11]; 0.04 µM): 1.04 | viability ([11]; 0.2 µM): 1.01 | viability ([11]; 1 µM): 1.05 | viability ([11]; 5 µM): 1.02 | viability ([12]; 0.008 µM): 0.858 | viability ([12]; 0.04 µM): 0.964 | viability ([12]; 0.2 µM): 0.815 | viability ([12]; 1 µM): 1.06 | viability ([12]; 5 µM): 1.01 | viability ([13]; 0.008 µM): 0.91 | viability ([13]; 0.04 µM): 0.975 | viability ([13]; 0.2 µM): 0.978 | viability ([13]; 1 µM): 0.96 | viability ([13]; 5 µM): 0.982 | viability ([14]; 0.008 µM): 0.87 | viability ([14]; 0.04 µM): 0.97 | viability ([14]; 0.2 µM): 0.934 | viability ([14]; 1 µM): 1.04 | viability ([14]; 5 µM): 1.05
